Read-outs that look alike come from different tables or passages of the source.
How the values were obtained:
MT-4 cells = assay: Cytotoxicity against mock-infected MT-4 cells (MTT); type: cell-based, human; conditions: concentration reducing viability of mock-infected MT-4 cells by 50%, 96 h
Procedure: (§1) Cell line supporting the multiplication of Human Immunodeficiency Virus type-1 (HIV-1) was the CD4+ human T-cells, derived from human hematological tumors, containing an integrated HTLV-1 genome (MT-4). Cells were purchased from American Type Culture Collection (ATCC). Human Immunodeficiency Virus type-1 (HIV-1) IIIB laboratory strain was obtained from the supernatant of the persistently infected H9/IIIB cells (NIH 1983).
(§2) Exponentially growing MT-4 cells were seeded at an initial density of 1 × 10^5 cells/mL in 96-well plates in RPMI-1640 medium, supplemented with 10% fetal bovine serum (FBS), 100 units/mL penicillin G and 100 μg/mL streptomycin. Cell cultures were then incubated at 37 °C in a humidified, 5% CO2 atmosphere, in the absence or presence of serial dilutions of tested compounds. Cell viability was determined after 96 h at 37 °C by the 3-(4,5-dimethylthiazol-2-yl)-2,5-diphenyl-tetrazolium bromide (MTT) method.

HIV-1 IIIB = assay: Anti-HIV-1 activity: protection of MT-4 cells from virus-induced cytopathogenicity (MTT); type: cell-based, Human Immunodeficiency Virus type-1; conditions: 50% protection of MT-4 cells from HIV-1 induced cytopathogenicity, MTT, 4-day incubation, read-out: HIV-1IIIB EC50
Source text: as §1
The activity of compounds against HIV-1 was based on inhibition of virus-induced cytopathogenicity in MT-4 cell acutely infected with a multiplicity of infection (m.o.i.) of 0.01. Briefly, 50 μL of RPMI containing 1 × 10^4 MT-4 cells were added to each well of flat-bottom microtiter trays, containing 50 μL of RPMI without or with serial dilutions of test compounds. Then, 20 μL of a HIV-1 suspension containing 100 CCID50 were added. After a 4-day incubation at 37 °C, cell viability was determined by the MTT method.

CCRF-CEM = assay: Antiproliferative assay (MTT); type: cell-based, human; conditions: concentration reducing cell proliferation by 50%, 96 h, mean of three determinations
Procedure: (§3) Cell lines derived from human hematological tumors were: CD4+ human T-cells containing an integrated HTLV-1 genome (MT-4); CD4+ human acute T-lymphoblastic leukemia (CCRF-CEM); human splenic B-lymphoblastoid cells (WIL-2NS); human acute B-lymphoblastic leukemia (CCRF-SB). Cells were seeded at an initial density of 1 × 10^5 cells/mL in 96 well plates in RPMI-1640 medium supplemented with 10% fetal calf serum (FCS), 100 units/mL penicillin G and 100 μg/mL streptomycin.
(§4) Cell lines derived from human solid tumors were: Skin melanoma (SK-MEL-28); prostate carcinoma (DU-145). Normal tissues foreskin fibroblasts (CRL-7065) were also used. Cells were seeded at 1 × 10^5 cells/mL in 96 well plates in specific media supplemented with 10% FCS and antibiotics, as above. Cell cultures were then incubated at 37 °C in a humidified, 5% CO2 atmosphere in the absence or presence of serial dilutions of test compounds. Cell viability was determined after 96 h at 37 °C by the MTT method.

CCRF-SB = assay: Antiproliferative assay (MTT); type: cell-based, human; conditions: concentration reducing cell proliferation by 50%, 96 h, mean of three determinations
Procedure: as §3, §4

MT-4 = assay: Antiproliferative assay (MTT); type: cell-based, human; conditions: concentration reducing cell proliferation by 50%, 96 h, mean of three determinations
Procedure: as §3, §4

WIL-2NS = assay: Antiproliferative assay (MTT); type: cell-based, human; conditions: concentration reducing cell proliferation by 50%, 96 h, mean of three determinations
Procedure: as §3, §4

DU145 = assay: Antiproliferative assay (MTT); type: cell-based, human; conditions: prostate carcinoma, concentration reducing cell proliferation by 50%, 96 h
Procedure: as §4

SK-MEL-28 = assay: Antiproliferative assay (MTT); type: cell-based, human; conditions: skin melanoma, concentration reducing cell proliferation by 50%, 96 h
Procedure: as §4

CRL7065 = assay: Antiproliferative assay (MTT), normal cell line; type: cell-based, human; conditions: normal foreskin fibroblasts, concentration reducing cell proliferation by 50%, 96 h
Procedure: as §4

[1] = Cytotoxicity against mock-infected MT-4 cells (MTT); type: cell-based, human; conditions: human, concentration reducing viability of mock-infected MT-4 cells by 50%
Procedure: as §1, §2

`O=[N+]([O-])c1cc(NC(=S)Nc2ccc(C(F)(F)F)cc2)ccc1Cl` [Compound 16] showed a CC50 (MT-4 cells) of 7 µM and an EC50 (HIV-1 IIIB) greater than 7 µM.

`O=[N+]([O-])c1cc(NC(=S)Nc2ccccc2Cl)ccc1Cl` [Compound 1] gave a CC50 (MT-4 cells) of 8.8 µM, an EC50 (HIV-1 IIIB) greater than 8.8 µM and a CC50 (CCRF-CEM) of 13 µM. It also gave a CC50 (CCRF-SB) of 14 µM, a CC50 (MT-4) of 8.8 µM and a CC50 (WIL-2NS) of 14 µM. It also gave a CC50 (DU145) of 7.6 µM, a CC50 (SK-MEL-28) of 8.7 µM and a CC50 (CRL7065) of 18 µM.

Molecule `O=[N+]([O-])c1ccc(NC(=S)Nc2ccc(Cl)c([N+](=O)[O-])c2)cc1` [Compound 18] has a CC50 (MT-4 cells) of 7 µM and an EC50 (HIV-1 IIIB) greater than 7 µM.

`CC(NC(=S)Nc1ccc(Cl)c([N+](=O)[O-])c1)c1ccccc1` (stereo not shown) [Compound 26] showed a CC50 (MT-4 cells) of 16.7 µM and an EC50 (HIV-1 IIIB) greater than 16.7 µM.

In the case of `CC[C@@]1(O)C(=O)OCc2c1cc1n(c2=O)Cc2cc3ccccc3nc2-1` [Camptotecin, reference compound], the CC50 (CCRF-CEM) is reported as 0.003 µM, the CC50 (CCRF-SB) is reported as 0.004 µM and the CC50 (MT-4) is reported as 0.004 µM. For the same molecule, the CC50 (WIL-2NS) was 0.005 µM, the CC50 (DU145) was 0.08 µM and the CC50 (SK-MEL-28) was 0.07 µM. For the same molecule, the CC50 (CRL7065) was 0.3 µM.

With `O=C1Nc2ccc(Cl)cc2[C@@](C#CC2CC2)(C(F)(F)F)O1` [Efavirenz, reference compound] the CC50 at 96 h [1] was 46 µM and the EC50 (HIV-1 IIIB; Human immunodeficiency virus 1, IIIB, MT4, 96 h) was 0.002 µM.

For `O=[N+]([O-])c1cc(NC(=S)Nc2ccc(F)cc2)ccc1Cl` [Compound 9], the CC50 (MT-4 cells) was 7 µM, the EC50 (HIV-1 IIIB) was greater than 7 µM and the CC50 (CCRF-CEM) was 9.1 µM. For the same molecule, the CC50 (CCRF-SB) was 9.4 µM, the CC50 (MT-4) was 7 µM and the CC50 (WIL-2NS) was 11 µM. For the same molecule, the CC50 (DU145) was 8.4 µM, the CC50 (SK-MEL-28) was 20 µM and the CC50 (CRL7065) was 22 µM.

With `O=[N+]([O-])c1cc(NC(=S)Nc2ccc(Cl)cc2)ccc1Cl` [Compound 3] the CC50 (MT-4 cells) was 7 µM and the EC50 (HIV-1 IIIB) was greater than 7 µM.

`N#Cc1ccc(NC(=S)Nc2ccc(Cl)c([N+](=O)[O-])c2)cc1` [Compound 19] showed a CC50 (MT-4 cells) of 8.2 µM, an EC50 (HIV-1 IIIB) greater than 8.2 µM and a CC50 (CCRF-CEM) of 9.1 µM. The CC50 (CCRF-SB) was 9.2 µM, the CC50 (MT-4) was 8.2 µM and the CC50 (WIL-2NS) was 10 µM. The CC50 (DU145) was 8 µM, the CC50 (SK-MEL-28) was 9 µM and the CC50 (CRL7065) was 20 µM.

Molecule `Cc1ccc(Cl)cc1NC(=S)Nc1ccc(Cl)c([N+](=O)[O-])c1` [Compound 14] has a CC50 (MT-4 cells) of 8.2 µM, an EC50 (HIV-1 IIIB) greater than 8.2 µM and a CC50 (CCRF-CEM) of 9.4 µM. It also gave a CC50 (CCRF-SB) of 9.8 µM, a CC50 (MT-4) of 8.2 µM and a CC50 (WIL-2NS) of 10 µM. It also gave a CC50 (DU145) of 7.8 µM, a CC50 (SK-MEL-28) of 9 µM and a CC50 (CRL7065) of 18 µM.

In the case of `O=[N+]([O-])c1cc(NC(=S)Nc2ccccc2Br)ccc1Cl` [Compound 4], the CC50 (MT-4 cells) is reported as 9.6 µM, the CC50 (CCRF-CEM) is reported as 22 µM and the CC50 (CCRF-SB) is reported as 22 µM. It also gave a CC50 (MT-4) of 9.6 µM, a CC50 (WIL-2NS) of 30 µM and a CC50 (DU145) of 8 µM. The CC50 (SK-MEL-28) was 15 µM and the CC50 (CRL7065) was 20 µM.

For `O=[N+]([O-])c1cc(NC(=S)Nc2ccc(Br)cc2)ccc1Cl` [Compound 6], the CC50 (MT-4 cells) was 6.6 µM, the EC50 (HIV-1 IIIB) was greater than 6.6 µM and the CC50 (CCRF-CEM) was 6 µM. It also gave a CC50 (CCRF-SB) of 8 µM, a CC50 (MT-4) of 6.6 µM and a CC50 (WIL-2NS) of 7 µM. It also gave a CC50 (DU145) of 6 µM, a CC50 (SK-MEL-28) of 6 µM and a CC50 (CRL7065) of 30 µM.

Work on `O=[N+]([O-])c1cc(NC(=S)Nc2ccc(F)c(Cl)c2)ccc1Cl` [Compound 10] yielded a CC50 (MT-4 cells) of 7.3 µM, an EC50 (HIV-1 IIIB) greater than 7.3 µM and a CC50 (CCRF-CEM) of 5 µM. It also gave a CC50 (CCRF-SB) of 8.8 µM, a CC50 (MT-4) of 7.3 µM and a CC50 (WIL-2NS) of 7 µM. It also gave a CC50 (DU145) of 6.5 µM, a CC50 (SK-MEL-28) of 6.6 µM and a CC50 (CRL7065) of 16 µM.

`O=[N+]([O-])c1cc(NC(=S)Nc2ccccc2F)ccc1Cl` [Compound 7] showed a CC50 (MT-4 cells) of 13 µM and an EC50 (HIV-1 IIIB) greater than 13 µM.

For `O=[N+]([O-])c1cc(NC(=S)Nc2ccc(I)cc2)ccc1Cl` [Compound 17], the CC50 (MT-4 cells) was 7.8 µM, the EC50 (HIV-1 IIIB) was greater than 7.8 µM and the CC50 (CCRF-CEM) was 6 µM. For the same molecule, the CC50 (CCRF-SB) was 8.3 µM, the CC50 (MT-4) was 7.8 µM and the CC50 (WIL-2NS) was 7 µM. It also gave a CC50 (DU145) of 11 µM, a CC50 (SK-MEL-28) of 6 µM and a CC50 (CRL7065) of 30 µM.

`O=[N+]([O-])c1cc(NC(=S)Nc2cccc(F)c2)ccc1Cl` [Compound 8] showed a CC50 (MT-4 cells) of 9 µM and an EC50 (HIV-1 IIIB) greater than 9 µM.

For `O=[N+]([O-])c1cc(NC(=S)Nc2cccc(Cl)c2)ccc1Cl` [Compound 2], the CC50 (MT-4 cells) was 7 µM and the EC50 (HIV-1 IIIB) was greater than 7 µM.

`O=[N+]([O-])c1cc(NC(=S)Nc2cccc(C(F)(F)F)c2)ccc1Cl` [Compound 15] gave a CC50 (MT-4 cells) of 8 µM and an EC50 (HIV-1 IIIB) greater than 8 µM.

In the case of `O=[N+]([O-])c1cc(NC(=S)Nc2cccc(Br)c2)ccc1Cl` [Compound 5], the CC50 (MT-4 cells) is reported as 8 µM and the EC50 (HIV-1 IIIB) is reported as greater than 8 µM.

Molecule `O=[N+]([O-])c1cc(NC(=S)Nc2ccc(Cl)cc2Cl)ccc1Cl` [Compound 12] has a CC50 (MT-4 cells) of 8 µM and an EC50 (HIV-1 IIIB) greater than 8 µM.
